Results published in ChEMBL document CHEMBL3045100, “Comparative molecular similarity indices analysis of some 1-substituted imidazole analogs as Candida albicans P450-demethylase inhibitors” (2013).
In brackets after ≈: the same amount, converted by molar mass.

Tested on: Candida albicans
Test: Antifungal activity against Candida albicans assessed as growth inhibition
Type: functional
Details: for MIC: Candida albicans

SMILES	-logMIC	MIC
OC(Cn1ccnc1)c1ccc(Cl)cc1 (configuration not stated)	2.4	250 µg/mL (≈ 1120 µM)
O=C(Cn1ccnc1)c1ccc(Cl)cc1	2	100 µg/mL (≈ 453 µM)
Cc1ncc([N+](=O)[O-])n1CCOC(c1ccccc1)c1cccs1 (configuration not stated)	2.6	400 µg/mL (≈ 1160 µM)
Cc1nccn1CC(=O)c1ccc(Br)cc1	2.48	300 µg/mL (≈ 1070 µM)
COc1ccc(NC(=S)Nn2c(-c3ccc([N+](=O)[O-])cc3)cnc2S)cc1	0.29	1.95 µg/mL (≈ 4.86 µM)
O=[N+]([O-])c1ccc(-c2cnc(S)n2NC(=S)Nc2cccc3ccccc23)cc1	2.7	> 500 µg/mL
O=C(Cn1ccnc1)c1ccc(Br)cc1	2.3	250 µg/mL (≈ 943 µM)
OC(Cn1ccnc1)c1ccc(Br)cc1 (configuration not stated)	2.3	200 µg/mL (≈ 749 µM)
Cc1nc([N+](=O)[O-])cn1CC(CNc1ccccc1)Nc1ccccc1 (configuration not stated)	2.3	200 µg/mL (≈ 569 µM)
Cc1nc([N+](=O)[O-])cn1CC(=O)CNc1ccccc1	2.6	400 µg/mL (≈ 1460 µM)
Cc1ccc(NCC(=O)Cn2cc([N+](=O)[O-])nc2C)cc1	2.6	400 µg/mL (≈ 1390 µM)
COc1ccccc1NCC(=O)Cn1cc([N+](=O)[O-])nc1C	2.6	400 µg/mL (≈ 1310 µM)
Cc1nc([N+](=O)[O-])cn1CC(=O)CNc1cccc(Cl)c1	2.6	400 µg/mL (≈ 1300 µM)
Cc1ncc([N+](=O)[O-])n1CC(=O)CNc1ccc(Cl)cc1	2.6	800 µg/mL (≈ 2590 µM)
Cc1nccn1CC(=O)Nc1cccc(O)c1	2.9	800 µg/mL (≈ 3460 µM)
Cc1ncc([N+](=O)[O-])n1CC(=O)Nc1cccc(O)c1	2.9	800 µg/mL (≈ 2900 µM)
O=C(Cn1ccnc1)Nc1cccc(O)c1	2.9	800 µg/mL (≈ 3680 µM)
Cc1ncc([N+](=O)[O-])n1C(C)C(=O)Nc1cccc(O)c1 (configuration not stated)	2.6	400 µg/mL (≈ 1380 µM)
O=C(CCn1ccnc1)Nc1cccc(O)c1	2.9	800 µg/mL (≈ 3460 µM)
Cc1nccn1CCC(=O)Nc1cccc(O)c1	2.9	800 µg/mL (≈ 3260 µM)
Cc1ncc([N+](=O)[O-])n1CCC(=O)Nc1cccc(O)c1	2.9	800 µg/mL (≈ 2760 µM)
Cc1ncc([N+](=O)[O-])n1CCOC(Cc1cccs1)c1ccccc1 (configuration not stated)	2.6	400 µg/mL (≈ 1120 µM)

SMILES	-logMIC	MIC
Cc1ncc([N+](=O)[O-])n1CCOC(c1ccccc1)c1cnccn1 (configuration not stated)	2.6	400 µg/mL (≈ 1180 µM)
Cc1ncc([N+](=O)[O-])n1CCOC(c1ccccc1)c1ccccc1S (configuration not stated)	2.6	400 µg/mL (≈ 1080 µM)
Cc1ccccc1NC(=S)Nn1ccnc1-c1ccc(Cl)cc1	2.03	100 µg/mL (≈ 292 µM)
Cc1ccc(NC(=S)Nn2ccnc2-c2ccc(Cl)cc2)cc1	2.69	500 µg/mL (≈ 1460 µM)
COc1ccccc1NC(=S)Nn1ccnc1-c1ccc(Cl)cc1	1.97	100 µg/mL (≈ 279 µM)
COc1ccc(NC(=S)Nn2ccnc2-c2ccc(Cl)cc2)cc1	2.02	100 µg/mL (≈ 279 µM)
S=C(Nc1cccc2ccccc12)Nn1ccnc1-c1ccc(Cl)cc1	2.42	250 µg/mL (≈ 660 µM)
Cc1ccccc1NC(=S)Nn1ccnc1-c1ccc(Br)cc1	2.01	100 µg/mL (≈ 258 µM)
Cc1ccc(NC(=S)Nn2ccnc2-c2ccc(Br)cc2)cc1	2.41	250 µg/mL (≈ 645 µM)
COc1ccccc1NC(=S)Nn1ccnc1-c1ccc(Br)cc1	2.4	250 µg/mL (≈ 620 µM)
COc1ccc(NC(=S)Nn2ccnc2-c2ccc(Br)cc2)cc1	2	100 µg/mL (≈ 248 µM)
S=C(Nc1cccc2ccccc12)Nn1ccnc1-c1ccc(Br)cc1	2.01	100 µg/mL (≈ 236 µM)
Cc1nc([N+](=O)[O-])cn1CCC(=O)Nc1ccccc1	3	1000 µg/mL (≈ 3650 µM)
Cc1nc([N+](=O)[O-])cn1CCC(=O)Nc1ccccc1Cl	2.93	1000 µg/mL (≈ 3240 µM)
Cc1nc([N+](=O)[O-])cn1CCC(=O)Nc1cccc(Cl)c1	2.71	500 µg/mL (≈ 1620 µM)
Cc1nc([N+](=O)[O-])cn1CCC(=O)Nc1ccccc1S	2.68	500 µg/mL (≈ 1630 µM)
Cc1nc([N+](=O)[O-])cn1CCC(=O)Nc1ccccc1[N+](=O)[O-]	2.95	1000 µg/mL (≈ 3130 µM)
Cc1nc([N+](=O)[O-])cn1CCC(=O)Nc1c(Br)cc(Br)cc1Br	2.64	500 µg/mL (≈ 979 µM)
Cc1nc([N+](=O)[O-])cn1CCC(=O)Nc1cccc2ccccc12	2.74	500 µg/mL (≈ 1540 µM)
CCCNCCn1c([N+](=O)[O-])cnc1C	1.68	50 µg/mL (≈ 236 µM)
Cc1ncc([N+](=O)[O-])n1CCNC(C)C	1.39	25 µg/mL (≈ 118 µM)
Cc1ncc([N+](=O)[O-])n1CCN(C(C)C)C(C)C	1.38	25 µg/mL (≈ 98.3 µM)

SMILES	-logMIC	MIC
Cc1ncc([N+](=O)[O-])n1CCNc1ccccc1	1.7	50 µg/mL (≈ 203 µM)
Cc1ncc([N+](=O)[O-])n1CCNc1ccccc1[N+](=O)[O-]	2	100 µg/mL (≈ 343 µM)
Cc1ncc([N+](=O)[O-])n1CCNc1ccc([N+](=O)[O-])cc1	1.1	12.5 µg/mL (≈ 42.9 µM)
Cc1ccccc1NC(=S)Nn1c(-c2ccc([N+](=O)[O-])cc2)cnc1S	1.5	31.2 µg/mL (≈ 81.1 µM)
Cc1ccc(NC(=S)Nn2c(-c3ccc([N+](=O)[O-])cc3)cnc2S)cc1	0.6	3.91 µg/mL (≈ 10.1 µM)
Cc1ncc([N+](=O)[O-])n1CC(O)CNCC(C)C (configuration not stated)	1.99	100 µg/mL (≈ 390 µM)
CCCCNCC(O)Cn1c([N+](=O)[O-])cnc1C (configuration not stated)	1.99	100 µg/mL (≈ 390 µM)
Cc1ncc([N+](=O)[O-])n1CC(O)COc1ccccc1 (configuration not stated)	2.06	100 µg/mL (≈ 361 µM)
Cc1ccccc1OCC(O)Cn1c([N+](=O)[O-])cnc1C (configuration not stated)	2	100 µg/mL (≈ 343 µM)
Cc1ncc([N+](=O)[O-])n1CC(O)COc1cccc2ccccc12 (configuration not stated)	2.06	100 µg/mL (≈ 305 µM)
Cc1ncc([N+](=O)[O-])n1CC(O)COc1ccc2ccccc2c1 (configuration not stated)	2.69	500 µg/mL (≈ 1530 µM)
Cc1ncc([N+](=O)[O-])n1CN(C(C)C)C(C)C	2	100 µg/mL (≈ 416 µM)
Cc1ncc([N+](=O)[O-])n1CNc1ccccc1	1.94	100 µg/mL (≈ 431 µM)
Cc1ccc(NCn2c([N+](=O)[O-])cnc2C)cc1	1.98	100 µg/mL (≈ 406 µM)
Cc1ncc([N+](=O)[O-])n1CNc1cccc2ccccc12	2	100 µg/mL (≈ 354 µM)
Cc1nccn1CC(=O)c1ccc(Cl)cc1	2.26	200 µg/mL (≈ 852 µM)
Cc1nccn1CC(=O)c1ccc(-c2ccccc2)cc1	2.48	300 µg/mL (≈ 1090 µM)
Cc1nccn1CC(O)c1ccc(Cl)cc1 (configuration not stated)	2.31	200 µg/mL (≈ 845 µM)
Cc1nccn1CC(O)c1ccc(Br)cc1 (configuration not stated)	2.35	200 µg/mL (≈ 711 µM)
Cc1nccn1CC(O)c1ccc([N+](=O)[O-])cc1 (configuration not stated)	2.39	300 µg/mL (≈ 1210 µM)
Cc1nccn1CC(O)c1ccc(-c2ccccc2)cc1 (configuration not stated)	2.33	200 µg/mL (≈ 719 µM)
Cc1nccn1CC(=O)c1ccc([N+](=O)[O-])cc1	2.9	200 µg/mL (≈ 816 µM)
